Measurements from patent publication US11147272B2, “Pyridone compounds and agricultural and horticultural fungicides comprising the same as active ingredients” (MITSUI CHEMICALS AGRO, INC., priority 2017, dated 2021).

Assays:
Phytophthora infestans = experiment: whole plant or invertebrate; type: in vivo; settings: Late blight on tomato; control value class
Alternaia brassicicola = experiment: Test Example C: Alternaria sooty spot on cabbage; type: in vivo; settings: Alternaria sooty spot on cabbage; control value class
From the text: Seeds of a test plant (cabbage variety: Shikidori) were planted and cultivated until the cotyledons extended.
<Control Value> Control value=100{1−(n/3)}

Botrytis cinerea = experiment: Test Example B: Gray mold on tomato; settings: Gray mold on tomato; control value class
[1] = tested on: Blumeria graminis f. sp. hordei; experiment: Test Example D: Powdery mildew on barley; settings: Powdery mildew on barley; control value class
Puccinia recondita = experiment: Test Example E: Brown rust on wheat; type: in vivo; settings: Brown rust on wheat; control value class
Magnaporthe grisea = experiment: whole plant or invertebrate; type: in vivo; settings: Blast on rice; control value class
[2] = tested on: Colletotrichum orbiculare; experiment: Test Example H: Anthracnose on cucumber; settings: Anthracnose on cucumber; 250 ppm spray, 6 to 10 days after inoculation
Plasmopara viticola = experiment: Test Example G: Downy mildew on vine; settings: Downy mildew on vine; 250 ppm spray, 7 to 10 days after inoculation

Structure (SMILES)	Test F control value (Phytophthora infestans)	Test C control value (Alternaia brassicicola)	Test B control value (Botrytis cinerea)	Test D control value [1]	Test E control value (Puccinia recondita)	Test A control value (Magnaporthe grisea)	Test H control value [2]	Test G control value (Plasmopara viticola)
CCOc1ccc(-c2c(CC)cc(Cl)c(=O)n2C)c(Cl)c1 [compound 337]	L (50% or less control value)	L (50% or less control value)	H (more than 50% control value)	L (50% or less control value)	H (more than 50% control value)	L (50% or less control value)	H (more than 50% control value)	L (50% or less control value)
CCC1=C(c2ccc(F)cc2Br)N(CC)C(=O)CC1 [compound 338]	L (50% or less control value)	H (more than 50% control value)	L (50% or less control value)	L (50% or less control value)	L (50% or less control value)	L (50% or less control value)	L (50% or less control value)	L (50% or less control value)
CCc1ccc(=O)n(CC)c1-c1ccc(F)cc1Br [compound 340]	L (50% or less control value)	H (more than 50% control value)	H (more than 50% control value)	H (more than 50% control value)	H (more than 50% control value)	L (50% or less control value)	L (50% or less control value)	L (50% or less control value)
CCCC1=C(c2ccc(F)cc2Br)N(C)C(=O)CC1 [compound 341]	L (50% or less control value)	L (50% or less control value)	L (50% or less control value)	L (50% or less control value)	L (50% or less control value)	L (50% or less control value)	H (more than 50% control value)	L (50% or less control value)
CCc1cc(Cl)c(=O)n(CC)c1-c1ccc(F)cc1Br [compound 342]	L (50% or less control value)	H (more than 50% control value)	H (more than 50% control value)	H (more than 50% control value)	H (more than 50% control value)	H (more than 50% control value)	H (more than 50% control value)	L (50% or less control value)
CCc1cc(Br)c(=O)n(CC)c1-c1ccc(F)cc1Br [compound 343]	L (50% or less control value)	H (more than 50% control value)	H (more than 50% control value)	H (more than 50% control value)	H (more than 50% control value)	H (more than 50% control value)	H (more than 50% control value)	H (more than 50% control value)
CCc1ccc(=O)n(CC)c1-c1ccc(OC)cc1Br [compound 344]	L (50% or less control value)	H (more than 50% control value)	H (more than 50% control value)	L (50% or less control value)	H (more than 50% control value)	L (50% or less control value)	L (50% or less control value)	L (50% or less control value)
CCc1cc(Cl)c(=O)n(CC)c1-c1ccc(OC)cc1Br [compound 345]	L (50% or less control value)	H (more than 50% control value)	H (more than 50% control value)	L (50% or less control value)	H (more than 50% control value)	H (more than 50% control value)	H (more than 50% control value)	H (more than 50% control value)
CCc1cc(Br)c(=O)n(CC)c1-c1ccc(OC)cc1Br [compound 346]	L (50% or less control value)	H (more than 50% control value)	H (more than 50% control value)	L (50% or less control value)	H (more than 50% control value)	H (more than 50% control value)	H (more than 50% control value)	H (more than 50% control value)
CCc1ccc(=O)n(CC)c1-c1ccc(F)cc1C [compound 347]	L (50% or less control value)	H (more than 50% control value)	H (more than 50% control value)	L (50% or less control value)	L (50% or less control value)	L (50% or less control value)	L (50% or less control value)	L (50% or less control value)
CCc1ccc(=O)n(C)c1-c1ccc(F)cc1Br [compound 348]	L (50% or less control value)	L (50% or less control value)	H (more than 50% control value)	H (more than 50% control value)	H (more than 50% control value)	L (50% or less control value)	L (50% or less control value)	L (50% or less control value)
CCc1cc(Cl)c(=O)n(C)c1-c1ccc(F)cc1Br [compound 349]	L (50% or less control value)	H (more than 50% control value)	H (more than 50% control value)	H (more than 50% control value)	H (more than 50% control value)	L (50% or less control value)	L (50% or less control value)	H (more than 50% control value)
CCc1cc(Br)c(=O)n(C)c1-c1ccc(F)cc1Br [compound 350]	L (50% or less control value)	H (more than 50% control value)	H (more than 50% control value)	L (50% or less control value)	H (more than 50% control value)	L (50% or less control value)	L (50% or less control value)	H (more than 50% control value)
CCc1cc(Cl)c(=O)n(CC)c1-c1ccc(F)cc1C [compound 351]	L (50% or less control value)	H (more than 50% control value)	H (more than 50% control value)	H (more than 50% control value)	H (more than 50% control value)	L (50% or less control value)	H (more than 50% control value)	L (50% or less control value)
CCc1cc(Br)c(=O)n(CC)c1-c1ccc(F)cc1C [compound 352]	L (50% or less control value)	H (more than 50% control value)	H (more than 50% control value)	H (more than 50% control value)	H (more than 50% control value)	H (more than 50% control value)	H (more than 50% control value)	L (50% or less control value)
CCc1ccc(=O)n(CC)c1-c1ccc(OC)cc1C [compound 353]	L (50% or less control value)	L (50% or less control value)	L (50% or less control value)	H (more than 50% control value)	H (more than 50% control value)	L (50% or less control value)	L (50% or less control value)	L (50% or less control value)
CCc1ccc(=O)n(C)c1-c1ccc(OC)cc1Br [compound 354]	L (50% or less control value)	L (50% or less control value)	L (50% or less control value)	L (50% or less control value)	H (more than 50% control value)	L (50% or less control value)	H (more than 50% control value)	L (50% or less control value)
CCc1cc(Cl)c(=O)n(CC)c1-c1ccc(OC)cc1C [compound 355]	L (50% or less control value)	H (more than 50% control value)	H (more than 50% control value)	H (more than 50% control value)	H (more than 50% control value)	H (more than 50% control value)	H (more than 50% control value)	L (50% or less control value)
